Source: patent publication US20260027073A1, “USE OF SMALL-MOLECULE COMPOUND HAVING NAPHTHYLAMINE STRUCTURE” (HANGZHOU PHECDAMED CO., LTD., priority 2023, published 2026)

How the values were obtained:
[1] = system: Mesenchymal stem cells (MSC) differentiated from normal human pluripotent stem cells (iPSC); experiment: Senescence of normal human derived mesenchymal stem cells; format: cell-based; settings: 10 μM
Method: Mesenchymal stem cells (MSC) differentiated from normal human pluripotent stem cells (iPSC) were taken for culture, and the experiment was divided into three groups: young cells cultured for 6 generations, labeled as Con-Y; senescent cells cultured for 16 generations, labeled as Con-O; and the administration group, to which 10 μM TJ01-013 was added during the process of culture, similarly cultured up to the 16th generation, and labeled as Con-O+TJ01-013, and after the end of the treatment, all cells were placed under the microscope to observe the morphology of the cells, and the percentage of SA-β-gal+ cells was count. The levels of the DNA damage marker γ-H2AX and the heterochromatin modification H3K9me3 after TJ01-013 treatment were detected by immunofluorescence technique (procedure described previously).

[2] = system: LPS-induced acute lung injury mice; experiment: LPS-induced acute lung injury; format: in vivo, C57BL/6J mice
Method: Male mice C57BL/6J aged 6-8 weeks and weighing 18-22 g were selected for the study. After fixing the mice, 50 μl of PBS was injected into the airways of the mice under direct laryngoscopic vision to form a control group, and 5 mg/kg of LPS (E.coil) was dissolved in 50 μl of PBS and dripped to form a model group. The experiments were divided into […], each having 6 mice, namely, NS group (control group, airway drip of 50 μl PBS), LPS group (model control group, airway drip of 50 μl LPS), LPS+10 mg/kg group (airway drip of 50 μl LPS and given 10 mg/kg TJ01-013 treatment), LPS+20 mg/kg group (airway drip of 50 μl LPS and given 20 mg/kg TJ01-013 treatment), LPS+30 mg/kg group (airway drip of 50 μl LPS and given 30 mg/kg TJ01-013 treatment), LPS+Sivelestat group (Positive control group, airway drip of 50 μl LPS and given 5 mg/kg Sivelestat treatment). All groups were administered […] by intraperitoneal injection in a volume of 200 μl 1 h and 7 h after airway drip, and the mice were euthanized 24 h later, bronchoalveolar lavage fluid (BALF) was taken, and the levels of inflammatory factors in the bronchoalveolar lavage fluid were detected and the changes in the transcriptional levels of tissue-associated inflammatory factors were observed. • (2) taking and observing of Bronchoalveolar lavage fluid (BALF)
Use chloral hydrate intraperitoneal injection to make mice die of rapid overdose anesthesia, place mice in supine position on the dissection table, fix the limbs, disinfect the skin of the neck of the mice with 75% ethanol, incise the skin along the midline of the neck, bluntly separate the subcutaneous connective tissues and muscles with hemostatic forceps, expose the trachea, separate connective tissues on both sides of the trachea and between the trachea and the esophagus, and free the trachea. Two surgical sutures about 20 cm long were threaded between the trachea and esophagus. A 24G intravenous cannula needle was inserted at a 30-degree angle from the connective tissue membrane between the thyroid cartilage and the cricoid cartilage, and the intravenous cannula needle was delivered in the direction of the tracheal eminence. A surgical suture placed between the tracheo-esophageal was ligated at the entry of the cannula into the trachea and at the distal end of the cannula, respectively, and tied as tightly as possible to secure the cannula and trachea. 0.8 ml of PBS was aspirated with a 1 ml syringe, and the syringe was connected to the inlet end of the intravenous cannula needle, and PBS was slowly injected into the trachea, stayed for 30 seconds and then was withdrawn back, and a milky white frothy liquid withdrawn back was visible, and the lavage was repeated three times, and the liquid was centrifuged at 1500 rpm/min for 10 min, and the supernatant was used for cytokine assay, and the cell precipitates were coated after resuspending with PBS for Giemsa staining and sorting and counting.
The levels of inflammatory factors (inflammatory factors including IL-6, CXCL1, CXCL2, etc.) in BALF supernatant were detected according to the instructions of the ELISA test kit.
The obtained cDNA was amplified on a 96-well PCR plate using a LightCycler 480 system, and the gene level was determined by using glyceraldehyde 3-phosphate dehydrogenase (GAPDH) as an internal standard.

[3] = system: cisplatin-induced hearing impairment model in mice; experiment: Cisplatin-induced hearing damage; format: in vivo, C57 mice
Method: Select 8-week-old C57 male mice weighing 22-25 g, according to the previous studies and the previous laboratory exploration, mice were induced to have hearing damage by 4 mg/kg of cisplatin, and a certain amount of cisplatin was dissolved in 0.9% saline of the model control group, and then intraperitoneally injected into the mice for four consecutive days, with the volume of the intraperitoneal injection of 5 ml/kg, and then intraperitoneally injected into the mice for four consecutive days with the volume of 0.9% saline for recovery and alleviation, the injection was prescribed at the same time point every day, and no treatment was done on the 9th day to conduct hearing test or dissect the mice for subsequent experiments. […]
The mice were sacrificed by neck dissection, and the cochlea was removed from mice by neck dissection, and processed under the anatomical microscope to expose the round window and the oval window, the cochlear apex was perforate, and the round window, the oval window and the cochlear apex were perfused with 4% PFA solution, and then the whole cochlea was put into 4% PFA solution for fixation, and was shaken overnight at 4° C. […] Finally, photographs were taken using a fluorescence microscope.

[4] = TJ01-013 10, 20, 30 mg/kg, Sivelestat 5 mg/kg, FIG. 26
[5] = concentration-dependent for TJ01-013, FIG. 27

With `O=C(O)C[S+]([O-])c1cc(NS(=O)(=O)c2ccc(Br)cc2)c2ccccc2c1O` (stereo not drawn) [I-1] the “percentage of SA-β-gal-positive cells” value ([1]; 16th generation, vs Con-O, FIG. 51) was “significantly decreased”, the “level of DNA damage marker γ-H2AX” value ([1]; FIG. 52) was “significantly reduced” and the “expression level of heterochromatin-modified H3K9me3” value ([1]; FIG. 53) was “restored its expression level to some extent”. For the same compound, the “number of macrophages in alveolar lavage fluid” value ([2]; FIG. 25) was “no significant effect”, the “number of neutrophils in alveolar lavage fluid” value ([2]; FIG. 25) was “significantly reduce” and the “total number of cells in alveolar lavage fluid, compared with positive control Sivelestat sodium” value ([2]; TJ01-013 20 mg/kg, FIG. 25) was “decreased to a better extent”. For the same compound, the “CXCL1 level in alveolar lavage fluid (ELISA)” value [2, 4] was “significantly decreased in a concentration-dependent manner”, the “CXCL2 level in alveolar lavage fluid (ELISA)” value [2, 4] was “significantly decreased in a concentration-dependent manner” and the “IL-6 level in alveolar lavage fluid (ELISA)” value [2, 4] was “significantly decreased in a concentration-dependent manner”. The “total number of cells in alveolar lavage fluid” value ([2]; after LPS, intraperitoneal TJ01-013, FIG. 25) was “decreased”, the “CXCL1 transcript level in lung tissue” value [2, 5] was “significantly decreased” and the “CXCL2 transcript level in lung tissue” value [2, 5] was “significantly decreased”. The “IL-6 transcript level in lung tissue” value [2, 5] was “significantly decreased”, the “hearing thresholds (ABR)” value ([3]; 4, 8, 16, 24, 32 kHz, 30 mg/kg gavage, 8 days, FIG. 46) was “significantly decreased” and the “loss of hair cells (Myo7a, cochlear basement membrane)” value ([3]; apical, middle, base gyrus, FIG. 47) was “significantly reduced the loss of hair cells”.
